Key:
[1] = target: KDR kinase (Seq ID No. 3) (Homo sapiens, UniProt P35968, DEL940-989/E990V); assay: KDR Kinase Assay (assays K1, K2, K3); format: biochemical; conditions: assay variant K1, K2 or K3 not stated; read-out: KDR Enzyme Assay
[2] = target: T1, c-KIT kinase (Seq. ID no. 1) (Homo sapiens, UniProt P10721); assay: c-KIT kinase Assay (ADP production, pyruvate kinase/lactate dehydrogenase coupled); format: biochemical; conditions: read-out: cKIT Enzyme Assay
T1 construct: purchased ProQinase
T1 sequence (P10721 with tags, fused parts or gaps): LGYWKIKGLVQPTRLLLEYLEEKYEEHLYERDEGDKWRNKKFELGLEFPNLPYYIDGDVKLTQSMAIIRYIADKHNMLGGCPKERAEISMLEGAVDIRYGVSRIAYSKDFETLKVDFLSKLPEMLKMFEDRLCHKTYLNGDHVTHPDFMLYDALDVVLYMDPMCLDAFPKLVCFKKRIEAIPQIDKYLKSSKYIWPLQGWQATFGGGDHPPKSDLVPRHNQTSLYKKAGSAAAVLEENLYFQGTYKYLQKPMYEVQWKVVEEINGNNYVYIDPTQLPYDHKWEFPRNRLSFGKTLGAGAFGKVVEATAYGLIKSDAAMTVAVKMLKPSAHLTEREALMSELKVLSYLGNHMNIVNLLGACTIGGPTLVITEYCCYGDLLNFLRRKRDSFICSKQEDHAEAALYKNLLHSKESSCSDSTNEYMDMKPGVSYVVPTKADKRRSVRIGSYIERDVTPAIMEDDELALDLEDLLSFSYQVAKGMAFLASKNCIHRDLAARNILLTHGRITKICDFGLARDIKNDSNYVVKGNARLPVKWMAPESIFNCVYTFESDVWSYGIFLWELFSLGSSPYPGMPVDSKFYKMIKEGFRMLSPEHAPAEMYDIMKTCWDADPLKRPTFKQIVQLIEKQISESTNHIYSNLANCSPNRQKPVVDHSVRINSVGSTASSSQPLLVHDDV
Procedure: In this assay, the oxidation of NADH (thus the decrease at A340 nm) was continuously monitored spectrophometrically. […] The absorption at 340 nm was monitored continuously for 0.5 hours at 30° C. on Polarstar Optima plate reader (BMG). The reaction rate was calculated using the 0 to 0.5 h time frame. Percent inhibition was obtained by comparison of reaction rate with that of a control (i.e. with no test compound). IC50 values were calculated from a series of percent inhibition values determined at a range of inhibitor concentrations using software routines as implemented in the GraphPad Prism software package.

PDGFRα kinase = target: T2, PDGFRα kinase (Homo sapiens, UniProt P16234); assay: PDGFRα Kinase Assay; format: biochemical; conditions: read-out: PDGFRa Enzyme Assay
T2 construct: purchased Invitrogen
T2 sequence (P16234 24-1089): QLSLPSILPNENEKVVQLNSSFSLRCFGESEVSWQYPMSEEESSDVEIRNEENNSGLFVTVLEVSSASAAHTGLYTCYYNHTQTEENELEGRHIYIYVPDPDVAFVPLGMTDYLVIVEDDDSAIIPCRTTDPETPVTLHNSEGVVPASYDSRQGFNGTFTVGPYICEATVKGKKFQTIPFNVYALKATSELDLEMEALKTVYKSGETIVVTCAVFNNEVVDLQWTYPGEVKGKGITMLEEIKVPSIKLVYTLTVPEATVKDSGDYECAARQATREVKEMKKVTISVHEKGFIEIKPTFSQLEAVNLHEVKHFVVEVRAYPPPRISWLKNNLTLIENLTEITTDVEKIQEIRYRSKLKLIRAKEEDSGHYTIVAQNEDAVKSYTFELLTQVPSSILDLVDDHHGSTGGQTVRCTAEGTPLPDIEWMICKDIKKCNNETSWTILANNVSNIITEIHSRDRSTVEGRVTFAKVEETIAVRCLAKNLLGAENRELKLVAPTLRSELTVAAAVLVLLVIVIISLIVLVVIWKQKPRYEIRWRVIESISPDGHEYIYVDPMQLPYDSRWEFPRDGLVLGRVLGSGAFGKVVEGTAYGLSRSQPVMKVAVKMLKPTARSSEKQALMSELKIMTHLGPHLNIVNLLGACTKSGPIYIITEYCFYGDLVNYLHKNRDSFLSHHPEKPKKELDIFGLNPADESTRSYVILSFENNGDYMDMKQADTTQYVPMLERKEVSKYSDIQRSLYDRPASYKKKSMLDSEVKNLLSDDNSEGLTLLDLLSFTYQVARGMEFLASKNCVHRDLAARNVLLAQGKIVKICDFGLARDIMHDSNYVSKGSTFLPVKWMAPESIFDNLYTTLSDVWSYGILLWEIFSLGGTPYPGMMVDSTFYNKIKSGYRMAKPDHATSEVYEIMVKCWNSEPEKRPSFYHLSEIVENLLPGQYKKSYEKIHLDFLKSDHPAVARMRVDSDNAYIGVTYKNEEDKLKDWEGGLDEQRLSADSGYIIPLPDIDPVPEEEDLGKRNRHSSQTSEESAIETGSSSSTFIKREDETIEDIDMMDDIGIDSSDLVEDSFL
Procedure: (§1) Activity of PDGFRα kinase was determined by following the production of ADP from the kinase reaction through coupling with the pyruvate kinase/lactate dehydrogenase system. In this assay, the oxidation of NADH (thus the decrease at A340 nm) was continuously monitored spectrophometrically. The reaction mixture (100 μl) contained PDGFRα (Invitrogen, 10 nM), polyE4Y (1 mg/ml), MgCl2 (10 mM), pyruvate kinase (4 units), lactate dehydrogenase (0.7 units), phosphoenol pyruvate (1 mM) and NADH (0.28 mM) and ATP (500 μM) in a 90 mM Tris buffer containing 0.2% octyl-glucoside and 1% DMSO, pH 7.5. The inhibition reaction was started by mixing serial diluted test compound with the above reaction mixture. The absorption at 340 nm was monitored continuously for 4 hours at 30° C. on a Polarstar Optima or Synergy 2 plate reader. The reaction rate was calculated using the 2 to 3 h time frame. Percent inhibition was obtained by comparison of reaction rate with that of a control (i.e. with no test compound). IC50 values were calculated from a series of percent inhibition values determined at a range of inhibitor concentrations using software routines as implemented in the GraphPad Prism software package.

PDGFRβ = target: T3, PDGFRβ (Homo sapiens, UniProt P09619); assay: PDGFRβ Kinase Assay; format: biochemical; conditions: read-out: PDGFRb Enzyme Assay
T3 construct: purchased Invitrogen
T3 sequence (P09619 33-1106): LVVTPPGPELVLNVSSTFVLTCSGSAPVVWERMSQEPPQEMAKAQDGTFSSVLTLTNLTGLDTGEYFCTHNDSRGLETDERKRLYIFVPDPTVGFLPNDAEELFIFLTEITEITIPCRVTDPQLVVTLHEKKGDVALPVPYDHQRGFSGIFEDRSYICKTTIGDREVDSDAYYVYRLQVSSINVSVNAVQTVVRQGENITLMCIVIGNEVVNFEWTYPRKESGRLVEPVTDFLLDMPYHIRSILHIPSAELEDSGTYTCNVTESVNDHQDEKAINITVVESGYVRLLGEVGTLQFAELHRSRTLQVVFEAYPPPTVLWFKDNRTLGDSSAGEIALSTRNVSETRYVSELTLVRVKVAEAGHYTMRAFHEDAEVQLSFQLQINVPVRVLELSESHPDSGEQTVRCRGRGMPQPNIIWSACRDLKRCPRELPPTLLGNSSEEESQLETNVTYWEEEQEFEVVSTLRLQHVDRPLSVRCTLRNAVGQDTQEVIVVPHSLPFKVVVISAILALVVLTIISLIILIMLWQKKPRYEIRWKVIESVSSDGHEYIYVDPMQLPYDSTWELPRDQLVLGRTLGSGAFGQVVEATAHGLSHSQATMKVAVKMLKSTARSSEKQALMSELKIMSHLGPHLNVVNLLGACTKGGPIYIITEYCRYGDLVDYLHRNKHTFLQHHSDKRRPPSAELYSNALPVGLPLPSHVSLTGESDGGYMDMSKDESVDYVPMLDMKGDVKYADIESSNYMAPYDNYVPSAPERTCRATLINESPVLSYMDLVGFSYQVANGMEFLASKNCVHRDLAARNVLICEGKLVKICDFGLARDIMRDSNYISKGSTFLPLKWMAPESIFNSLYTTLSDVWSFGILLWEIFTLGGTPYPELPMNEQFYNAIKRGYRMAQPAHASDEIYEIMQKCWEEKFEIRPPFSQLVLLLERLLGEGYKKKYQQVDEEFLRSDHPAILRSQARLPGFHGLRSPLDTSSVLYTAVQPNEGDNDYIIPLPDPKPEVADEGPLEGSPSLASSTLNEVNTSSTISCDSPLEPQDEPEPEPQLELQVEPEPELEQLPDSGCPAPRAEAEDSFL

FMS kinase = target: T4, FMS kinase (Homo sapiens, UniProt P07333); assay: FMS Kinase Assay; format: biochemical; conditions: read-out: FMS Enzyme Assay
T4 construct: purchased Invitrogen or Millipore
T4 sequence (P07333 20-972): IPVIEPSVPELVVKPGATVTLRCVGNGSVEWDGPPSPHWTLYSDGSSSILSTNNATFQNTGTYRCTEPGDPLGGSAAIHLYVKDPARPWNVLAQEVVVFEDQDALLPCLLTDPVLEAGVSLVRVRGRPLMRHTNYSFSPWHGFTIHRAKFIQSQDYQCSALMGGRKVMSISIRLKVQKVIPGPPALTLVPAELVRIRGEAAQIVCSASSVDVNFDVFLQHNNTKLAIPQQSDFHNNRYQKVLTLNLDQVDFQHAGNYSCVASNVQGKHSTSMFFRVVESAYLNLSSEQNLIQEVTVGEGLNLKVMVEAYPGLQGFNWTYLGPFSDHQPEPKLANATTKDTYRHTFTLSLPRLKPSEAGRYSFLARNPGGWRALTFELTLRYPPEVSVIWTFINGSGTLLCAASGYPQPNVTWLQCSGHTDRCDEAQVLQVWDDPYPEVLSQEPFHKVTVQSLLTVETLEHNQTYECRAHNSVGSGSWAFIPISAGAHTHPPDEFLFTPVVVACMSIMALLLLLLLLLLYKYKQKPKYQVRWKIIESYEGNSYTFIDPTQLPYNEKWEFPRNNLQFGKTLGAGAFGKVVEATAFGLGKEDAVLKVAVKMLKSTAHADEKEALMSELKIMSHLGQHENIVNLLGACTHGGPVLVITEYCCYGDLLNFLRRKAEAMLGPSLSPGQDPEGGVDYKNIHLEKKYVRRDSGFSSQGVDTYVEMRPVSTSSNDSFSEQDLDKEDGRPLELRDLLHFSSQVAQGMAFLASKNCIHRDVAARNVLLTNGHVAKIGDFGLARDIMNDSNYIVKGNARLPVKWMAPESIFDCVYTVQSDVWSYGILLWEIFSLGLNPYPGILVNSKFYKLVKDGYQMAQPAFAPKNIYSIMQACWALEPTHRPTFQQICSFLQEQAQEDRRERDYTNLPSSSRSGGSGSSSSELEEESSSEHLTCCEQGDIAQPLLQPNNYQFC
Procedure: as §1, with “In” for “Activity of PDGFRα kinase was determined by following the production of ADP from the kinase reaction through coupling with the pyruvate kinase/lactate dehydrogenase system. In”, “FMS (purchased from Invitrogen or Millipore, 6” for “PDGFRα (Invitrogen, 10”

[3] = target: T5, c-MET kinase (Seq. ID no. 2) (Homo sapiens, UniProt P08581); assay: c-MET Kinase Assay (ADP production, pyruvate kinase/lactate dehydrogenase coupled); format: biochemical; conditions: read-out: cMET Enzyme Assay
T5 construct: purchased Invitrogen PV3143
T5 sequence (P08581 with tags, fused parts or gaps): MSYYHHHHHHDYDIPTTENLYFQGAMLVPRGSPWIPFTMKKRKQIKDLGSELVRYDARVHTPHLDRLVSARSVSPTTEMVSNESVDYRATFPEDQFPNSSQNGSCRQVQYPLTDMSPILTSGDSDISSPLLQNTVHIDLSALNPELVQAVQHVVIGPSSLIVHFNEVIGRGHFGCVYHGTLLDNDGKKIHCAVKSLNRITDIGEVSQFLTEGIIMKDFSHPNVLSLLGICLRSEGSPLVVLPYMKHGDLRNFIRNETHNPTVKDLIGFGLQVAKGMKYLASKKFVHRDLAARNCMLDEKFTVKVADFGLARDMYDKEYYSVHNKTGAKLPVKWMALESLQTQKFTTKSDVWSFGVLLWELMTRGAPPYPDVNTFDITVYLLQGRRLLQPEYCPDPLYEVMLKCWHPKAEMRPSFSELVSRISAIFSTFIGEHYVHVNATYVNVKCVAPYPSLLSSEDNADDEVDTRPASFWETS
Procedure: In this assay, the oxidation of NADH (thus the decrease at A340 nm) was continuously monitored spectrophometrically. […] Test compounds were incubated with C-Met (Seq. ID no. 2) and other reaction reagents at 22° C. for 0.5 h before ATP (100 μM) was added to start the reaction. The absorption at 340 nm was monitored continuously for 2 hours at 30° C. on Polarstar Optima plate reader (BMG). The reaction rate was calculated using the 1.0 to 2.0 h time frame. Percent inhibition was obtained by comparison of reaction rate with that of a control (i.e. with no test compound). IC50 values were calculated from a series of percent inhibition values determined at a range of inhibitor concentrations using software routines as implemented in the GraphPad Prism software package.

EBC-1 cells = assay: EBC-1 Cell Proliferation Assay (resazurin); format: cell-based; conditions: Homo sapiens, 67 h + 5 h resazurin, read-out: EBC1 Cell Proliferation
Procedure: EBC-1 cells (catalog #JCRB0820) were obtained from the Japan Health Science Research Resources Bank, Osaka, Japan. Briefly, cells were grown in DMEM supplemented with 10% characterized fetal bovine serum (Invitrogen, Carlsbad, Calif.) at 37 degrees Celsius, 5% CO2, 95% humidity. Cells were allowed to expand until reaching 70-95% confluency at which point they were subcultured or harvested for assay use.
EBC-1 Cell Proliferation Assay
A serial dilution of test compound was dispensed into a 96-well black clear bottom plate (Corning, Corning, N.Y.). For each cell line, five thousand cells were added per well in 200 μL complete growth medium. Plates were incubated for 67 hours at 37 degrees Celsius, 5% CO2, 95% humidity. […] Data was analyzed using Prism software (Graphpad, San Diego, Calif.) to calculate IC50 values.

KDR kinase (Seq ID No. 3), sequence (P35968 with tags, fused parts or gaps DEL940-989/E990V): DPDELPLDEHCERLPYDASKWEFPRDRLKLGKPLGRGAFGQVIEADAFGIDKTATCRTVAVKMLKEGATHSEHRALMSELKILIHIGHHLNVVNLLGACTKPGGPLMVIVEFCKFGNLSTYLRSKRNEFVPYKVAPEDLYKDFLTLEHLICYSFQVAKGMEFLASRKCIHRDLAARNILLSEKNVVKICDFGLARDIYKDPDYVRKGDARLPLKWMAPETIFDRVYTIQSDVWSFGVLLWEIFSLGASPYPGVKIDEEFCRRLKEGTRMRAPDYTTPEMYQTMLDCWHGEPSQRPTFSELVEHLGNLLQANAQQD

Molecule	IC50 [1]	IC50 [2]	IC50 (PDGFRα kinase)	IC50 (PDGFRβ)	IC50 (FMS kinase)	IC50 [3]	IC50 (EBC-1 cells)
C[C@@H](NC(=O)C1(C(=O)Nc2ccc(Oc3ccnc(-c4cnn(C)c4)c3)c(F)c2)CC1)c1ccccc1 [Example 17, N-(3-fluoro-4-(2-(1-methyl-1H-pyrazol-4-yl)pyridin-4-yloxy)phenyl)-N′-((R)-1-phenylethyl)cyclopropane-1,1-dicarboxamide]	< 10 µM	< 2 µM	< 10 µM	< 10 µM	< 0.2 µM	–	–
1-(2,3-difluoro-4-(2-(1H-pyrazol-4-yl)pyridin-4-yloxy)phenyl)-3-(2-(4-fluorophenyl)acetyl)urea [Example 43]	< 10 µM	< 2 µM	< 0.2 µM	< 2 µM	< 0.2 µM	< 2 µM	–
Cn1cc(-c2cc(Oc3ccc(NC(=O)C4(C(=O)NCc5ccccc5)CC4)c(F)c3F)ccn2)cn1 [Example 3, N-benzyl-N′-(2,3-difluoro-4-(2-(1-methyl-1H-pyrazol-4-yl)pyridin-4-yloxy)phenyl)cyclopropane-1,1-dicarboxamide]	< 2 µM	–	< 2 µM	< 10 µM	–	–	–
CN(C(=O)C1(C(=O)Nc2ccc(F)cc2)CC1)c1ccc(Oc2ccnc(-c3cnn(C)c3)c2)c(F)c1 [Example 58, N-(3-fluoro-4-(2-(1-methyl-1H-pyrazol-4-yl)pyridin-4-yloxy)phenyl)-N′-(4-fluorophenyl)-N-methylcyclopropane-1,1-dicarboxamide]	< 10 µM	< 10 µM	< 10 µM	–	–	< 10 µM	–
Cc1c(Oc2ccnc(-c3cnn(C)c3)c2)ccc(NC(=O)C2(C(=O)Nc3ccc(F)cc3)CC2)c1F [Example 32, N-(2-fluoro-3-methyl-4-(2-(1-methyl-1H-pyrazol-4-yl)pyridin-4-yloxy)phenyl)-N-(4-fluorophenyl)cyclopropane-1,1-dicarboxamide]	< 10 µM	–	–	–	< 2 µM	< 2 µM	–
Cc1cc(-c2cc(Oc3ccc(NC(=O)C4(C(=O)Nc5ccc(F)cc5)CC4)c(F)c3)ccn2)on1 [Example 59, N-(2-fluoro-4-(2-(3-methylisoxazol-5-yl)pyridin-4-yloxy)phenyl)-N′-(4-fluorophenyl)cyclopropane-1,1-dicarboxamide]	< 10 µM	–	–	–	< 0.2 µM	< 0.2 µM	–
Cc1cc(F)c(NC(=O)C2(C(=O)Nc3ccc(F)cc3)CC2)cc1Oc1nccc(-c2cn[nH]c2)n1 [Example 54, N-(5-(4-(1H-pyrazol-4-yl)pyrimidin-2-yloxy)-2-fluoro-4-methylphenyl)-N′-(4-fluorophenyl)cyclopropane-1,1-dicarboxamide]	< 10 µM	–	–	–	< 10 µM	< 10 µM	–
Cn1cc(-c2ccnc(Oc3ccc(F)c(NC(=O)C4(C(=O)Nc5ccc(F)cc5)CC4)c3)n2)cn1 [Example 53, N-(2-fluoro-5-(4-(1-methyl-1H-pyrazol-4-yl)pyrimidin-2-yloxy)phenyl)-N′-(4-fluorophenyl)cyclopropane-1,1-dicarboxamide]	< 10 µM	–	–	–	< 10 µM	< 10 µM	–
CCn1cc(-c2cc(Oc3ccc(NC(=O)C4(C(=O)Nc5ccc(F)cc5)CC4)cc3F)ccn2)cn1 [Example 19, N-(4-(2-(1-ethyl-1H-pyrazol-4-yl)pyridin-4-yloxy)-3-fluorophenyl)-N′-(4-fluorophenyl)cyclopropane-1,1-dicarboxamide]	–	–	–	–	–	–	< 2 µM
Cn1cc(-c2cc(Oc3ccc(NC(=O)C4(C(=O)Nc5ccc(F)cc5)CC4)cn3)ccn2)cn1 [Example 38, N-(4-fluorophenyl)-N′-(6-(2-(1-methyl-1H-pyrazol-4-yl)pyridin-4-yloxy)pyridin-3-yl)cyclopropane-1,1-dicarboxamide]	< 10 µM	–	–	–	< 10 µM	< 2 µM	–
Cn1cc(-c2cc(Oc3ccc(NC(=O)C4(C(=O)Nc5ccc(F)cc5)CC4)c(F)c3F)ccn2)cn1 [Example 1, N-(2,3-difluoro-4-(2-(1-methyl-1H-pyrazol-4-yl)pyridin-4-yloxy)phenyl)-N′-(4-fluorophenyl)cyclopropane-1,1-dicarboxamide]	< 2 µM	< 2 µM	< 0.2 µM	< 2 µM	–	< 0.2 µM	–
Cn1cc(-c2cc(Oc3ccc(NC(=O)C4(C(=O)NCc5ccccc5)CC4)cc3F)ccn2)cn1 [Example 4, N-benzyl-N′-(3-fluoro-4-(2-(1-methyl-1H-pyrazol-4-yl)pyridin-4-yloxy)phenyl)cyclopropane-1,1-dicarboxamide]	< 2 µM	< 2 µM	< 10 µM	< 10 µM	< 0.2 µM	–	–
Cn1cc(-c2cc(Oc3c(F)cc(NC(=O)NC(=O)Cc4ccc(F)cc4)cc3F)ccn2)cn1 [Example 48, 1-(3,5-difluoro-4-(2-(1-methyl-1H-pyrazol-4-yl)pyridin-4-yloxy)phenyl)-3-(2-(4-fluorophenyl)acetyl)urea]	< 2 µM	< 2 µM	< 10 µM	< 10 µM	< 10 µM	< 10 µM	–
Cc1cc(F)c(NC(=O)C2(C(=O)Nc3ccc(F)cc3)CC2)cc1Oc1nccc(-c2cnn(C)c2)n1 [Example 52, N-(2-fluoro-4-methyl-5-(4-(1-methyl-1H-pyrazol-4-yl)pyrimidin-2-yloxy)phenyl)-N′-(4-fluorophenyl)cyclopropane-1,1-dicarboxamide]	< 10 µM	–	–	–	< 10 µM	< 10 µM	–
CCCn1cc(-c2cc(Oc3ccc(NC(=O)C4(C(=O)Nc5ccc(F)cc5)CC4)cc3F)ccn2)cn1 [Example 20, N-(3-fluoro-4-(2-(1-propyl-1H-pyrazol-4-yl)pyridin-4-yloxy)phenyl)-N′-(4-fluorophenyl)cyclopropane-1,1-dicarboxamide]	–	–	–	–	–	–	< 2 µM
O=C(Nc1ccc(F)cc1)C1(C(=O)Nc2cc(Oc3nccc(-c4cn[nH]c4)n3)ccc2F)CC1 [Example 55, N-(5-(4-(1H-pyrazol-4-yl)pyrimidin-2-yloxy)-2-fluorophenyl)-N′-(4-fluorophenyl)cyclopropane-1,1-dicarboxamide]	< 10 µM	< 10 µM	< 10 µM	< 10 µM	< 10 µM	< 10 µM	–
O=C(Cc1ccc(F)cc1)NC(=O)Nc1ccc(Oc2ccnc(-c3nc(C(F)(F)F)c[nH]3)c2)cc1 [Example 39, 1-(2-(4-fluorophenyl)acetyl)-3-(4-(2-(4-(trifluoromethyl)-1,1-imidazol-2-yl)pyridin-4-yloxy)phenyl)urea]	–	–	< 0.2 µM	< 2 µM	–	–	–

Reference: patent US8486951B2 (Deciphera Pharmaceuticals, LLC, priority 2008, dated 2013)
